Literature values in paper PMC10952301, “Solid‐Phase Synthesis and Biological Evaluation of Peptides ADP‐Ribosylated at Histidine” (Angewandte Chemie (International Ed. in English), 2023).

Conditions: quoted without reference to compare leaving group capacity

SMILES: c1c[nH]nn1 [1,2,3‐triazole]
- pKa: 9.4
